Assay results published in article PMC5064235, “Structure-Based Design of Novel Tetrahydro-Beta-Carboline Derivatives with a Hydrophilic Side Chain as Potential Phosphodiesterase Inhibitors” (Scientia Pharmaceutica, 2015).
pIC50: −log10 of the molar value.

What was measured:
[1] = target: T1, recombinant human PDE5 (Homo sapiens, UniProt O76074); experiment: In vitro PDE5 inhibitory activity (IMAP FP phosphodiesterase assay); type: biochemical; conditions: purified PDE5, 50 nM TAMRA-cGMP, 1.5 h at 30 °C; 10 concentrations, at least two replicates; read-out: PDE5 Inhibition IC50
T1 construct: purchased BPS Biosciences, San Diego, CA, USA
Experimental: Phosphodiesterase Assay: 5 U/mL of purified PDE5 (BPS Biosciences, San Diego, CA, USA) was added to the wells of black 96-well non-binding plates. Immediately, the protein was treated with the compound or vehicle control and 50 nM TAMRA-cGMP and 50 nM Fluourescein-cAMP (Molecular Devices, Sunnyvale, CA, USA) were added to each assay well. The plates were incubated for 1.5 h at 30 °C. After incubation, the IMAP FP Phosphodiesterase Evaluation Assay (Molecular Devices, Sunnyvale, CA, USA) binding reagent was added to each well and the plates were incubated for an additional 30 min at 30 °C. FP was measured according to manufacturer’s specifications using a Biotech Synergy 4 plate reader. PDE activity was expressed by an IC50 value (50% inhibitory concentration). Data analysis was done through dose-response analysis, which was repeated at least twice to confirm the reproducibility of the IC50 values.
All the synthesized final THβC compounds were tested for their ability to inhibit recombinant human PDE5. Most of the compounds were evaluated in two steps. The first step was the determination of the percentage inhibition at a screening dose of 10 μM performed in triplicate. For compounds displaying a percentage of inhibition >50%, the IC50 was then determined by testing a range of 10 concentrations with at least two replicates per concentration (Table 2).

| SMILES | pIC50 [1] | melting point [°C] |
| --- | --- | --- |
| O=C1[C@H]2Cc3c([nH]c4ccccc34)[C@H](c3ccc(Br)cc3)N2C(=O)CN1CCCCO [Compound 7g, (6S,12R)-6-(4-Bromo-phenyl)-2-(4-hydroxy-butyl)-2,3,6,7,12,12a-hexahydropyrazino[1’,2’:1,6]pyrido[3,4-b]indole-1,4-dione] | < 5.00 |  |
| NCCCCN1CC(=O)N2[C@@H](c3ccc(Br)cc3)c3[nH]c4ccccc4c3C[C@H]2C1=O [Compound 7l, (6S,12S)-2-(4-Amino-butyl)-6-(4-bromo-phenyl)-2,3,6,7,12,12a-hexahydro-pyrazino[1’,2’:1,6]pyrido[3,4-b]indole-1,4-dione] | < 5.00 |  |
| O=C1[C@@H]2Cc3c([nH]c4ccccc34)[C@@H](c3ccc(Cl)cc3)N2C(=O)CN1CCO [Compound 6m, (6R,12aS)-6-(4-Chloro-phenyl)-2-(2-hydroxy-ethyl)-2,3,6,7,12,12a-hexahydro-pyrazino[1’,2’:1,6]pyrido[3,4-b]indole-1,4-dione] | < 5.00 | 202 to 206 |
| O=C1[C@@H]2Cc3c([nH]c4ccccc34)[C@H](c3ccc(Br)cc3)N2C(=O)CN1CCO [Compound 7i, (6S,12S)-6-(4-Bromo-phenyl)-2-(2-hydroxy-ethyl)-2,3,6,7,12,12a-hexahydro-pyrazino[1’,2’:1,6]pyrido[3,4-b]indole-1,4-dione] | < 5.00 |  |
| NCCN1CC(=O)N2[C@@H](c3ccc(Cl)cc3)c3[nH]c4ccccc4c3C[C@H]2C1=O [Compound 6j, (6S,12aS)-2-(2-Amino-ethyl)-6-(4-chloro-phenyl)-2,3,6,7,12,12a-hexahydro-pyrazino[1’,2’:1,6]pyrido[3,4-b]indole-1,4-dione] | < 5.00 | 231 to 233 |
| NCCN1CC(=O)N2[C@H](c3ccc(Cl)cc3)c3[nH]c4ccccc4c3C[C@H]2C1=O [Compound 6n, (6R,12aS)-2-(2-Amino-ethyl)-6-(4-chloro-phenyl)-2,3,6,7,12,12a-hexahydro-pyrazino[1’,2’:1,6]pyrido[3,4-b]indole-1,4-dione] | < 5.00 | 200 to 204 |
| NCCN1CC(=O)N2[C@@H](c3ccc(Br)cc3)c3[nH]c4ccccc4c3C[C@H]2C1=O [Compound 7j, (6S,12S)-2-(2-Amino-ethyl)-6-(4-bromo-phenyl)-2,3,6,7,12,12a-hexahydro-pyrazino[1’,2’:1,6]pyrido[3,4-b]indole-1,4-dione] | < 5.00 |  |
| O=C1[C@H]2Cc3c([nH]c4ccccc34)[C@@H](c3ccc(Br)cc3)N2C(=O)CN1CCO [Compound 7a, (6R,12R)-6-(4-Bromo-phenyl)-2-(2-hydroxy-ethyl)-2,3,6,7,12,12a-hexahydro-pyrazino[1’,2’:1,6]pyrido[3,4-b]indole-1,4-dione] | 6.08 |  |
| NCCCCN1CC(=O)N2[C@H](c3ccc(Br)cc3)c3[nH]c4ccccc4c3C[C@H]2C1=O [Compound 7p, (6R,12S)-2-(4-Amino-butyl)-6-(4-bromo-phenyl)-2,3,6,7,12,12a-hexahydro-pyrazino[1’,2’:1,6]pyrido[3,4-b]indole-1,4-dione] | 5.46 |  |
| O=C1[C@@H]2Cc3c([nH]c4ccccc34)[C@@H](c3ccc(Br)cc3)N2C(=O)CN1CCO [Compound 7m, (6R,12S)-6-(4-Bromo-phenyl)-2-(2-hydroxy-ethyl)-2,3,6,7,12,12a-hexahydro-pyrazino[1’,2’:1,6]pyrido[3,4-b]indole-1,4-dione] | 6.22 |  |
| O=C1[C@H]2Cc3c([nH]c4ccccc34)[C@H](c3ccc(Br)cc3)N2C(=O)CN1CCO [Compound 7e, (6S,12R)-6-(4-Bromo-phenyl)-2-(2-hydroxy-ethyl)-2,3,6,7,12,12a-hexahydro-pyrazino[1’,2’:1,6]pyrido[3,4-b]indole-1,4-dione] | < 5.00 |  |
| NCCCCN1CC(=O)N2[C@H](c3ccc(Br)cc3)c3[nH]c4ccccc4c3C[C@@H]2C1=O [Compound 7d, (6R,12R)-2-(4-Amino-butyl)-6-(4-bromo-phenyl)-2,3,6,7,12,12a-hexahydro-pyrazino[1’,2’:1,6]pyrido[3,4-b]indole-1,4-dione] | 5.57 |  |
| NCCCCN1CC(=O)N2[C@H](c3ccc(Cl)cc3)c3[nH]c4ccccc4c3C[C@H]2C1=O [Compound 6p, (6R,12S)-2-(4-Amino-butyl)-6-(4-chloro-phenyl)-2,3,6,7,12,12a-hexahydro-pyrazino[1’,2’:1,6]pyrido[3,4-b]indole-1,4-dione] | < 5.00 |  |
| O=C1[C@@H]2Cc3c([nH]c4ccccc34)[C@@H](c3ccc(Cl)cc3)N2C(=O)CN1CCCCO [Compound 6o, (6R,12aS)-6-(4-Chloro-phenyl)-2-(4-hydroxy-butyl)-2,3,6,7,12,12a-hexahydropyrazino[1’,2’:1,6]pyrido[3,4-b]indole-1,4-dione] | 5.64 | 199 to 203 |
| O=C1[C@H]2Cc3c([nH]c4ccccc34)[C@H](c3ccc(Cl)cc3)N2C(=O)CN1CCO [Compound 6e, (6S,12aR)-6-(4-Chloro-phenyl)-2-(2-hydroxy-ethyl)-2,3,6,7,12,12a-hexahydro-pyrazino[1’,2’:1,6]pyrido[3,4-b]indole-1,4-dione] | 5.33 | 202 to 206 |
| NCCCCN1CC(=O)N2[C@@H](c3ccc(Cl)cc3)c3[nH]c4ccccc4c3C[C@H]2C1=O [Compound 6l, (6S,12S)-2-(4-Amino-butyl)-6-(4-chloro-phenyl)-2,3,6,7,12,12a-hexahydro-pyrazino[1’,2’:1,6]pyrido[3,4-b]indole-1,4-dione] | < 5.00 |  |
| NCCN1CC(=O)N2[C@H](c3ccc(Br)cc3)c3[nH]c4ccccc4c3C[C@H]2C1=O [Compound 7n, (6R,12S)-2-(2-Amino-ethyl)-6-(4-bromo-phenyl)-2,3,6,7,12,12a-hexahydro-pyrazino[1’,2’:1,6]pyrido[3,4-b]indole-1,4-dione] | 6.05 |  |
| NCCCCN1CC(=O)N2[C@@H](c3ccc(Cl)cc3)c3[nH]c4ccccc4c3C[C@@H]2C1=O [Compound 6h, (6S,12R)-2-(4-Amino-butyl)-6-(4-chloro-phenyl)-2,3,6,7,12,12a-hexahydro-pyrazino[1’,2’:1,6]pyrido[3,4-b]indole-1,4-dione] | 5.51 | 200 to 202 |
| O=C1[C@H]2Cc3c([nH]c4ccccc34)[C@@H](c3ccc(Cl)cc3)N2C(=O)CN1CCCCO [Compound 6c, (6R,12aR)-6-(4-Chloro-phenyl)-2-(4-hydroxy-butyl)-2,3,6,7,12,12a-hexahydropyrazino[1’,2’:1,6]pyrido[3,4-b]indole-1,4-dione] | 6.92 | 228 to 230 |
| NCCN1CC(=O)N2[C@@H](c3ccc(Br)cc3)c3[nH]c4ccccc4c3C[C@@H]2C1=O [Compound 7f, (6S,12R)-2-(2-Amino-ethyl)-6-(4-bromo-phenyl)-2,3,6,7,12,12a-hexahydro-pyrazino[1’,2’:1,6]pyrido[3,4-b]indole-1,4-dione] | < 5.00 |  |
| O=C1[C@@H]2Cc3c([nH]c4ccccc34)[C@H](c3ccc(Cl)cc3)N2C(=O)CN1CCCCO [Compound 6k, (6S,12aS)-6-(4-Chloro-phenyl)-2-(4-hydroxy-butyl)-2,3,6,7,12,12a-hexahydropyrazino[1’,2’:1,6]pyrido[3,4-b]indole-1,4-dione] | 5.64 | 227 to 229 |
| NCCCCN1CC(=O)N2[C@H](c3ccc(Cl)cc3)c3[nH]c4ccccc4c3C[C@@H]2C1=O [Compound 6d, (6R,12R)-2-(4-Amino-butyl)-6-(4-chloro-phenyl)-2,3,6,7,12,12a-hexahydro-pyrazino[1’,2’:1,6]pyrido[3,4-b]indole-1,4-dione] | < 5.00 |  |
| O=C1[C@H]2Cc3c([nH]c4ccccc34)[C@@H](c3ccc(Br)cc3)N2C(=O)CN1CCCCO [Compound 7c, (6R,12R)-6-(4-Bromo-phenyl)-2-(4-hydroxy-butyl)-2,3,6,7,12,12a-hexahydropyrazino[1’,2’:1,6]pyrido[3,4-b]indole-1,4-dione] | 7.00 |  |
| O=C1[C@@H]2Cc3c([nH]c4ccccc34)[C@H](c3ccc(Br)cc3)N2C(=O)CN1CCCCO [Compound 7k, (6S,12S)-6-(4-Bromo-phenyl)-2-(4-hydroxy-butyl)-2,3,6,7,12,12a-hexahydropyrazino[1’,2’:1,6]pyrido[3,4-b]indole-1,4-dione] | < 5.00 |  |
| O=C1[C@@H]2Cc3c([nH]c4ccccc34)[C@@H](c3ccc(Br)cc3)N2C(=O)CN1CCCCO [Compound 7o, (6R,12S)-6-(4-Bromo-phenyl)-2-(4-hydroxy-butyl)-2,3,6,7,12,12a-hexahydropyrazino[1’,2’:1,6]pyrido[3,4-b]indole-1,4-dione] | 6.09 |  |
| NCCCCN1CC(=O)N2[C@@H](c3ccc(Br)cc3)c3[nH]c4ccccc4c3C[C@@H]2C1=O [Compound 7h, (6S,12R)-2-(4-Amino-butyl)-6-(4-bromo-phenyl)-2,3,6,7,12,12a-hexahydro-pyrazino[1’,2’:1,6]pyrido[3,4-b]indole-1,4-dione] | 5.49 |  |
| NCCN1CC(=O)N2[C@H](c3ccc(Br)cc3)c3[nH]c4ccccc4c3C[C@@H]2C1=O [Compound 7b, (6R,12R)-2-(2-Amino-ethyl)-6-(4-bromo-phenyl)-2,3,6,7,12,12a-hexahydro-pyrazino[1’,2’:1,6]pyrido[3,4-b]indole-1,4-dione] | 5.62 |  |
